Reference: PubChem BioAssay AID1259407 (Chemical Carcinogenesis Research Information System (CCRIS), 2018)
Activity calls are given as the source filed them. The rule behind the calls is not given here.

System: CCRIS mutagenicity, Ames/micronucleus/aberration tests
Test: CCRIS mutagenicity studies
[1] = Test System: AMES SALMONELLA TYPHIMURIUM, Strain/Indicator: TA98, Metabolic Activation: NONE, Method: PREINCUBATION
[2] = Test System: AMES SALMONELLA TYPHIMURIUM, Strain/Indicator: TA98, Metabolic Activation: NONE, Method: STANDARD PLATE
[3] = Test System: AMES SALMONELLA TYPHIMURIUM, Strain/Indicator: TA100, Metabolic Activation: NONE, Method: PREINCUBATION
[4] = Test System: AMES SALMONELLA TYPHIMURIUM, Strain/Indicator: TA100, Metabolic Activation: NONE, Method: STANDARD PLATE
[5] = Test System: AMES SALMONELLA TYPHIMURIUM, Strain/Indicator: TA100, Metabolic Activation: S-9, Method: STANDARD PLATE
[6] = Test System: AMES SALMONELLA TYPHIMURIUM, Strain/Indicator: TA1535, Metabolic Activation: NONE, Method: PREINCUBATION

With `CCc1cccc(CC)c1N(COC)C(=O)CCl` the mutagenic call (End Point: IN VITRO CHROMOSOMAL ABERRATIONS, Test System: PERIPHERAL BLOOD HUMAN LYMPHOCYTES, Metabolic Activation: NONE) was “inactive; negative; chromosomal aberrations not increased but chromatid-type aberrations i”, the mutagenic call (End Point: IN VITRO MICRONUCLEUS, Test System: HUMAN PERIPHERAL BLOOD LYMPHOCYTES, Metabolic Activation: NONE) was “active; positive; result at highest dose; variation among donors” and the mutagenic call (End Point: IN VITRO MICRONUCLEUS, Test System: HUMAN PERIPHERAL BLOOD LYMPHOCYTES, Metabolic Activation: S-9) was “active; positive; result at highest dose; variation among donors”. For the same compound, the mutagenic call (End Point: IN VITRO MICRONUCLEUS, Test System: PERIPHERAL BLOOD HUMAN LYMPHOCYTES, Metabolic Activation: NONE) was “active; positive; variation among donors”, the mutagenic call [1] was “inactive; negative” and the mutagenic call [2] was “inactive; negative”. For the same compound, the mutagenic call (Test System: AMES SALMONELLA TYPHIMURIUM, Strain/Indicator: TA98, Metabolic Activation: RAT, LIVER, MICROSOMES, PHENOBARBITAL, Method: PREINCUBATION) was “inactive; negative”, the mutagenic call (Test System: AMES SALMONELLA TYPHIMURIUM, Strain/Indicator: TA98, Metabolic Activation: S-9, Method: STANDARD PLATE) was “inactive; negative” and the mutagenic call [3] was “inactive; negative”. For the same compound, the mutagenic call [4] was “inactive; negative”, the mutagenic call (Test System: AMES SALMONELLA TYPHIMURIUM, Strain/Indicator: TA100, Metabolic Activation: RAT OLFACTORY S-9, Method: PREINCUBATION) was “active; positive” and the mutagenic call (Test System: AMES SALMONELLA TYPHIMURIUM, Strain/Indicator: TA100, Metabolic Activation: RAT RESPIRATORY S-9, Method: PREINCUBATION) was “inactive; negative”. The mutagenic call (Test System: AMES SALMONELLA TYPHIMURIUM, Strain/Indicator: TA100, Metabolic Activation: RAT, LIVER, MICROSOMES, PHENOBARBITAL, Method: PREINCUBATION) was “inactive; negative”, the mutagenic call (Test System: AMES SALMONELLA TYPHIMURIUM, Strain/Indicator: TA100, Metabolic Activation: RAT, LIVER, S-9, Method: PREINCUBATION) was “active; positive” and the mutagenic call [5] was “inactive; negative”. The mutagenic call (Test System: AMES SALMONELLA TYPHIMURIUM, Strain/Indicator: TA1535, Metabolic Activation: NONE, Method: STANDARD PLATE) was “inactive; negative”, the mutagenic call (Test System: AMES SALMONELLA TYPHIMURIUM, Strain/Indicator: TA1535, Metabolic Activation: S-9, Method: STANDARD PLATE) was “inactive; negative” and the mutagenic call (Test System: AMES SALMONELLA TYPHIMURIUM, Strain/Indicator: TA1537, Metabolic Activation: NONE, Method: STANDARD PLATE) was “inactive; negative”. The mutagenic call (Test System: AMES SALMONELLA TYPHIMURIUM, Strain/Indicator: TA1537, Metabolic Activation: S-9, Method: STANDARD PLATE) was “inactive; negative”, the mutagenic call (Test System: AMES SALMONELLA TYPHIMURIUM, Strain/Indicator: TA1538, Metabolic Activation: NONE, Method: STANDARD PLATE) was “active; positive” and the mutagenic call (Test System: AMES SALMONELLA TYPHIMURIUM, Strain/Indicator: TA1538, Metabolic Activation: S-9, Method: STANDARD PLATE) was “inactive; negative”. The mutagenic call (Test System: MOUSE LYMPHOMA, Strain/Indicator: 3.7.2C (TK+/TK-), Metabolic Activation: RAT OLFACTORY S-9, Method: SUSPENSION/PLATE) was “active; positive”.

In the case of `ClC1C(Br)C(Br)C(Br)C(Br)C1Br` (centres undefined), the mutagenic call (Test System: AMES SALMONELLA TYPHIMURIUM, Strain/Indicator: TA97, Metabolic Activation: HAMSTER, LIVER, S-9, AROCLOR 1254 (5, 10 OR 30%), Method: PREINCUBATION) is reported as “inactive; negative”, the mutagenic call (Test System: AMES SALMONELLA TYPHIMURIUM, Strain/Indicator: TA97, Metabolic Activation: NONE, Method: PREINCUBATION) is reported as “inactive; negative” and the mutagenic call (Test System: AMES SALMONELLA TYPHIMURIUM, Strain/Indicator: TA97, Metabolic Activation: RAT, LIVER, S-9, AROCLOR 1254 (10 OR 30%), Method: PREINCUBATION) is reported as “inactive; negative”. The mutagenic call (Test System: AMES SALMONELLA TYPHIMURIUM, Strain/Indicator: TA98, Metabolic Activation: HAMSTER, LIVER, S-9, AROCLOR 1254 (10 OR 30%), Method: PREINCUBATION) was “inactive; negative”, the mutagenic call [1] was “inactive; negative” and the mutagenic call (Test System: AMES SALMONELLA TYPHIMURIUM, Strain/Indicator: TA98, Metabolic Activation: RAT, LIVER, S-9, AROCLOR 1254 (10 OR 30%), Method: PREINCUBATION) was “inactive; negative”. For the same compound, the mutagenic call (Test System: AMES SALMONELLA TYPHIMURIUM, Strain/Indicator: TA100, Metabolic Activation: HAMSTER, LIVER, S-9, AROCLOR 1254 (10%), Method: PREINCUBATION) was “inactive; negative”, the mutagenic call (Test System: AMES SALMONELLA TYPHIMURIUM, Strain/Indicator: TA100, Metabolic Activation: HAMSTER, LIVER, S-9, AROCLOR 1254 (30%), Method: PREINCUBATION) was “inactive; negative” and the mutagenic call [3] was “inactive; negative”. The mutagenic call (Test System: AMES SALMONELLA TYPHIMURIUM, Strain/Indicator: TA100, Metabolic Activation: RAT, LIVER, S-9, AROCLOR 1254 (10 OR 30%), Method: PREINCUBATION) was “inactive; negative”, the mutagenic call (Test System: AMES SALMONELLA TYPHIMURIUM, Strain/Indicator: TA1535, Metabolic Activation: HAMSTER, LIVER, S-9, AROCLOR 1254 (5 OR 10%), Method: PREINCUBATION) was “inactive; negative” and the mutagenic call (Test System: AMES SALMONELLA TYPHIMURIUM, Strain/Indicator: TA1535, Metabolic Activation: HAMSTER, LIVER, S-9, AROCLOR 1254 (30%), Method: PREINCUBATION) was “inactive; negative”. For the same compound, the mutagenic call [6] was “inactive; negative” and the mutagenic call (Test System: AMES SALMONELLA TYPHIMURIUM, Strain/Indicator: TA1535, Metabolic Activation: RAT, LIVER, S-9, AROCLOR 1254 (10 OR 30%), Method: PREINCUBATION) was “inactive; negative”.

In the case of `O=C(N=c1sn(C(=O)c2ccc(Cl)c(Cl)c2)c2ccc([N+](=O)[O-])cc12)c1ccc(Cl)c(Cl)c1`, the mutagenic call [5] is reported as “active; positive”.

For `CC[N+](=O)[O-]`, the mutagenic call [1] was “inactive; negative”, the mutagenic call (Test System: AMES SALMONELLA TYPHIMURIUM, Strain/Indicator: TA98, Metabolic Activation: RAT, LIVER, S-9, KANECHLOR 500, Method: PREINCUBATION) was “inactive; negative” and the mutagenic call [3] was “inactive; negative”. For the same compound, the mutagenic call (Test System: AMES SALMONELLA TYPHIMURIUM, Strain/Indicator: TA100, Metabolic Activation: RAT, LIVER, S-9, KANECHLOR 500, Method: PREINCUBATION) was “inactive; negative”, the mutagenic call (Test System: AMES SALMONELLA TYPHIMURIUM, Strain/Indicator: TA102, Metabolic Activation: NONE, Method: PREINCUBATION) was “inactive; negative” and the mutagenic call (Test System: E. COLI, Strain/Indicator: WP2 UVRA (PKM101), Metabolic Activation: NONE, Method: PREINCUBATION) was “inactive; negative”. The mutagenic call (Test System: E. COLI, Strain/Indicator: WP2 UVRA (PKM101), Metabolic Activation: RAT, LIVER, S-9, KANECHLOR 500, Method: PREINCUBATION) was “inactive; negative”.

In the case of `[U]`, the mutagenic call (End Point: In vitro chromosomal aberrations, Test System: Human colon tumor line LT97, Metabolic Activation: None, Method: 24 color FISH) is reported as “active; positive (breaks at tumor-relevant chromosomes 5, 12, and 17); uranium and nitri”.

In the case of `O=C(Nc1ccc(Cl)cc1)c1csc([N+](=O)[O-])c1`, the mutagenic call [2] is reported as “active; positive” and the mutagenic call [4] is reported as “active; positive”.

With `CC(=O)OC1CC(C)OC(C)O1` (centres undefined) the mutagenic call (Test System: AMES SALMONELLA TYPHIMURIUM, Strain/Indicator: TA98, Metabolic Activation: HAMSTER, LIVER, S-9, AROCLOR 1254, Method: PREINCUBATION) was “inactive; negative”, the mutagenic call [1] was “inactive; negative” and the mutagenic call (Test System: AMES SALMONELLA TYPHIMURIUM, Strain/Indicator: TA98, Metabolic Activation: RAT, LIVER, S-9, AROCLOR 1254, Method: PREINCUBATION) was “inactive; negative”. For the same compound, the mutagenic call (Test System: AMES SALMONELLA TYPHIMURIUM, Strain/Indicator: TA100, Metabolic Activation: HAMSTER, LIVER, S-9, AROCLOR 1254, Method: PREINCUBATION) was “active; positive”, the mutagenic call [3] was “inactive; negative” and the mutagenic call (Test System: AMES SALMONELLA TYPHIMURIUM, Strain/Indicator: TA100, Metabolic Activation: RAT, LIVER, S-9, AROCLOR 1254, Method: PREINCUBATION) was “active; positive”. The mutagenic call (Test System: AMES SALMONELLA TYPHIMURIUM, Strain/Indicator: TA1535, Metabolic Activation: HAMSTER, LIVER, S-9, AROCLOR 1254, Method: PREINCUBATION) was “inactive; negative”, the mutagenic call [6] was “inactive; negative” and the mutagenic call (Test System: AMES SALMONELLA TYPHIMURIUM, Strain/Indicator: TA1535, Metabolic Activation: RAT, LIVER, S-9, AROCLOR 1254, Method: PREINCUBATION) was “inactive; negative”. For the same compound, the mutagenic call (Test System: AMES SALMONELLA TYPHIMURIUM, Strain/Indicator: TA1537, Metabolic Activation: HAMSTER, LIVER, S-9, AROCLOR 1254, Method: PREINCUBATION) was “inactive; negative”, the mutagenic call (Test System: AMES SALMONELLA TYPHIMURIUM, Strain/Indicator: TA1537, Metabolic Activation: NONE, Method: PREINCUBATION) was “inactive; negative” and the mutagenic call (Test System: AMES SALMONELLA TYPHIMURIUM, Strain/Indicator: TA1537, Metabolic Activation: RAT, LIVER, S-9, AROCLOR 1254, Method: PREINCUBATION) was “inactive; negative”.
